Data as given in US20040052754A1, “Complexes of phosphate derivatives” (priority 2000, published 2004).

Columns and labels:
[1] = Vapour pressure osmometry (dissociation in water); format: physicochemical; settings: arbitrary scale
From the text: A vapour pressure osmometer was used to investigate the dissociation of the di-sodium alpha tocopheryl phosphate N-lauryl imino dipropionate complex by comparing the lowering of the equilibrium temperature to give an identical partial pressure of water vapour around a drop of pure water versus various solutions as an indication of the relative moles of solute.
N-lauryl imino dipropionate alone gives three ions and at 0.05M the effect was 38 units. If the complex was readily dissociated, then the additional tocopheryl phosphate would be expected to increase the effect in the ratio 3:5 by the addition of the charged amino group as a cation and tocopheryl hydrogen phosphate anion.

[2] = test system: Human cadaver skin; assay: In vitro human skin penetration study; format: in vitro ADME; settings: analyte tocopheryl acetate
Protocol: DSS was similar in TP and […] content, however, unlike TPC, DSS existed as the mixed sodium salts. A slurry of 6.25 w/w % of 80% DSS in 93.75 w/w % of the 95/5-water/ethanol mixture iwa prepared. Tocopheryl acetate was obtained from Roche/BASF. 5.0 w/w % of TA was dispersed in 95.0 w/w % of 95/5 water/ethanol mixture. The test formulations were evaluated in in vitro human skin penetration studies. […] The tests were conducted by […] International (San Diego, Calif.). Human cadaver skin was obtained and prepared. […] Receptor solutions were collected over 48 hours at pre-selected time intervals. After 48 hours the skin surface was washed with isopropyl alcohol, and the skin was collected and split into epidermis and dermis. The skin sections were extracted with isopropyl alcohol.

CCCCCCCCCCCCN(CCC(=O)O)CCC(=O)O [N-lauryl imino dipropionate]
Osmometer effect ([1]; 0.05M in water): 38 units

CC(=O)Oc1c(C)c(C)c2c(c1C)CCC(C)(CCC[C@H](C)CCC[C@H](C)CCCC(C)C)O2 (stereo partly drawn) [TA, Tocopheryl acetate]
Dermis/Epidermis Ratio, Tocopheryl Acetate ([2]; 48 hours): 0.20
Percent distribution recovered: Tocopheryl Acetate, Dermis ([2]; dermis after 48 hours, 5 μL/cm^2 topical dose): 1.39 wt/wt %
Percent distribution recovered: Tocopheryl Acetate, Epidermis ([2]; epidermis after 48 hours, 5 μL/cm^2 topical dose): 7.13 wt/wt %
Percent distribution recovered: Tocopheryl Acetate, Surface Wash ([2]; surface wash after 48 hours, 5 μL/cm^2 topical dose): 91.48 wt/wt %

[Cl-].[Na+] [sodium chloride]
Osmometer effect ([1]; 0.1M in water): 29 unit
